Test results as given in ChEMBL document CHEMBL5465560, “Selectivity Literature for EUbOPEN Chemogenomic Library” (2024).

Legend:
[1] = system: Tyrosine-protein kinase ABL1 (Homo sapiens), P00519 [H396P]; assay: Selectivity interaction (KinomeScan (DiscoverX)) EUB0000655a ABL1; conditions: at 10 µM
[2] = Selectivity interaction (KinomeScan (DiscoverX)) EUB0000655a PKNB; conditions: at 10 µM
[3] = target: T1, Serine/threonine-protein kinase DCLK2 (Homo sapiens) (UniProt Q8N568); assay: Selectivity interaction (Kinase panel (Z-LYTE Assay)) EUB0001632a DCLK2; conditions: at 10 µM
T1 sequence (whole entry): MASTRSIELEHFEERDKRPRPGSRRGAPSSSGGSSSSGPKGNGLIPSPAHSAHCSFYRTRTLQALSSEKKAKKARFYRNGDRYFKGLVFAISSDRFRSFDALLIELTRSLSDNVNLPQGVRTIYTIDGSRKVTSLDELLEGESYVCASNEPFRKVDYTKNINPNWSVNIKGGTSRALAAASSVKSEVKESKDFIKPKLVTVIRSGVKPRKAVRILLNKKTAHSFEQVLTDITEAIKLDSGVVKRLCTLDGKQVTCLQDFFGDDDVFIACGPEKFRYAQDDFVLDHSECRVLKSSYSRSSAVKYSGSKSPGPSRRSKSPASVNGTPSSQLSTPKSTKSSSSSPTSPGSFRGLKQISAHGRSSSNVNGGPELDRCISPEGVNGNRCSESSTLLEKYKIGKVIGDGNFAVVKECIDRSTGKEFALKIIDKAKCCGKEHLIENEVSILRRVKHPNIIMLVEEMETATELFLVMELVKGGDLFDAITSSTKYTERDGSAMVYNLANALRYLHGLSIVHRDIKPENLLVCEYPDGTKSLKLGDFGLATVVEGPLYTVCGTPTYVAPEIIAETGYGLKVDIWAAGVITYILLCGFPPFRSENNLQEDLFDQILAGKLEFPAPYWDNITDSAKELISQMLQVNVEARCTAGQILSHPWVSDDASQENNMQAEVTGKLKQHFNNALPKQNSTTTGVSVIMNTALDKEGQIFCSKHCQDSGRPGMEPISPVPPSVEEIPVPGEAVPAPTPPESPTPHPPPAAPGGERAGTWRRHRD

[4] = target: Death-associated protein kinase 2 (Homo sapiens) (UniProt Q9UIK4); assay: Selectivity interaction (KinomeScan (DiscoverX)) EUB0000045b DAPK2
[5] = system: T2, Receptor-type tyrosine-protein kinase FLT3 (Homo sapiens), P36888 [K663Q]; assay: (§1) Selectivity interaction (KinomeScan (DiscoverX)) EUB0000618a FLT3; conditions: at 10 µM
T2 sequence (whole entry): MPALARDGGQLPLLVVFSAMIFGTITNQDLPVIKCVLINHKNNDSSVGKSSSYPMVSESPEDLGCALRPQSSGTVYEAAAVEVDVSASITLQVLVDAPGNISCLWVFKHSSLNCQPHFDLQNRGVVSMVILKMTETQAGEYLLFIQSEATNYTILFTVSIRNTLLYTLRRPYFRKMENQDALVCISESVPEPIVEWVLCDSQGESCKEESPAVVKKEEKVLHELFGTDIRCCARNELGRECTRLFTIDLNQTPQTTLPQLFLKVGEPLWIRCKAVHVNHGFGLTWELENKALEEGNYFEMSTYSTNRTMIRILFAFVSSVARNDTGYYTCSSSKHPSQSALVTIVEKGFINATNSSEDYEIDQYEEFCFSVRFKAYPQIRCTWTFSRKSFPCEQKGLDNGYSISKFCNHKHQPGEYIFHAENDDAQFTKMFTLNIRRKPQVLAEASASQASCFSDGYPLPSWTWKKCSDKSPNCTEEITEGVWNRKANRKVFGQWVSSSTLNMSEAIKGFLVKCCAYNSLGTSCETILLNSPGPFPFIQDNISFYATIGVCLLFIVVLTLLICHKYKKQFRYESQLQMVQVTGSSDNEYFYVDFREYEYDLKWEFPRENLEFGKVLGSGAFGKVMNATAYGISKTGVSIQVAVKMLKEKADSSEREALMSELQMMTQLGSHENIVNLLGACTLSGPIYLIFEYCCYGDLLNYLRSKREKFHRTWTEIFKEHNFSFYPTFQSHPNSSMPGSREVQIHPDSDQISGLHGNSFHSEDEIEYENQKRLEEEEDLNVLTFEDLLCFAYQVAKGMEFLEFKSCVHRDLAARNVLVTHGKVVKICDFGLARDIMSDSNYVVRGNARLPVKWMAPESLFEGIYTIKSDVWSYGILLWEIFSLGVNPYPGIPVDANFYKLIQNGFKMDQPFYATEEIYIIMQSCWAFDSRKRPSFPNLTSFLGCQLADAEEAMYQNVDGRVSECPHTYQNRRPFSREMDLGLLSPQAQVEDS

[6] = system: Receptor-type tyrosine-protein kinase FLT3 (Homo sapiens), P36888 [UNDEFINED MUTATION]; assay: as §1; conditions: at 10 µM
[7] = target: T3, Eukaryotic elongation factor 2 kinase (Homo sapiens) (UniProt O00418); assay: Selectivity interaction (ActivX KiNativ screen (ex vivo kinase selectivity in human PBMCs)) EUB0001619a EEF2K; type: cell-based; conditions: PBMC, at 1 µM
T3 sequence (whole entry): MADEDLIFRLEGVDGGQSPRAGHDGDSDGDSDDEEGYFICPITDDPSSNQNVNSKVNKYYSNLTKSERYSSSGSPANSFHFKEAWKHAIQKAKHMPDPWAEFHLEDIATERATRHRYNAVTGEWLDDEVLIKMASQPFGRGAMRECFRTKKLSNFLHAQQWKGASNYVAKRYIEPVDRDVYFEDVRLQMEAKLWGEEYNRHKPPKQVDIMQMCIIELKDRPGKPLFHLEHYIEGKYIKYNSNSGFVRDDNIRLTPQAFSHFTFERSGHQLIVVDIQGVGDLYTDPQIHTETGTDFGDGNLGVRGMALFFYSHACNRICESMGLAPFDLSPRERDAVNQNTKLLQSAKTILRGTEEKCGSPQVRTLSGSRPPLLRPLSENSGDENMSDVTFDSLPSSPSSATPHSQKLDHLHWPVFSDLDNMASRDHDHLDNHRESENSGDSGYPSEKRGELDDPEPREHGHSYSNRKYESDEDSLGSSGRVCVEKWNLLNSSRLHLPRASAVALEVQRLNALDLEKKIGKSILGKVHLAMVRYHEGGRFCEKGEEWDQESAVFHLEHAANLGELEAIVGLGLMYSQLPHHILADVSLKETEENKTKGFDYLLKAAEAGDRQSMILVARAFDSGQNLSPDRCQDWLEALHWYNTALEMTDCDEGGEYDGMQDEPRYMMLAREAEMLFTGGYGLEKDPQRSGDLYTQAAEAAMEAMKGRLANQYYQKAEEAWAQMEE

Chain of Death-associated protein kinase 2 (Homo sapiens) (Q9UIK4 whole entry, looked up): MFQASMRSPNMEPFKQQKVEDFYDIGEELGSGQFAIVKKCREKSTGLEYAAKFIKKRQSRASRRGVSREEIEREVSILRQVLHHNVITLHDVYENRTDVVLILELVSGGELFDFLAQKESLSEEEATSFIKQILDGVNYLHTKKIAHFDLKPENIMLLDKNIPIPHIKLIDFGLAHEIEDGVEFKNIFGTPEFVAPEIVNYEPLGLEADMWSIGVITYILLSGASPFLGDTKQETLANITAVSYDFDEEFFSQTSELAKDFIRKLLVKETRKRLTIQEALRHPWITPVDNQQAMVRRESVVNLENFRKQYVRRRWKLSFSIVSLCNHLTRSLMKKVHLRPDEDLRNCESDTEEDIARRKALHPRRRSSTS

Molecule CN(C)CCOc1ccc(-c2nc(-c3ccncc3)c(-c3ccc4c(c3)CC/C4=N\O)[nH]2)cc1 has a % of control [1] of 6.9% and a % of control [2] of 65%.

Cn1cc(-n2cnc3c(NCc4nc5cc(Cl)c(Cl)cc5[nH]4)nc(N4CCOCC4)nc32)cn1 showed a % of control [3] of -1.8%.

C=CC(=O)Nc1cc(-n2c(=O)ccc3cnc4ccc(-c5ccc(NS(C)(=O)=O)cc5)cc4c32)ccc1C gave a % of control ([4]; at 1 µM) of 100% and a % of control ([4]; at 10 µM) of 94%.

In the case of O[C@H]1CC[C@H](Nc2ncc3nc(Nc4c(F)cc(F)cc4F)n([C@H]4CCOC4)c3n2)CC1, the % of control [5] was 100% and the % of control [6] was 90%.

N#Cc1cccc(-c2c[nH]c3ncnc(N4CCOCC4)c23)c1 showed a % of inhibition [7] of 3%.
